Target: TRPM7 (Rattus norvegicus, UniProt Q925B3)
Test: whole-cell patch clamp of endogenous TRPM7 currents in NRK-52E and NRK-49F cells ([…] complete block); IC50 from Fura-2 Mn2+ quench in NRK-52E cells
Format: cell-based

Chain of TRPM7 (Q925B3 whole entry): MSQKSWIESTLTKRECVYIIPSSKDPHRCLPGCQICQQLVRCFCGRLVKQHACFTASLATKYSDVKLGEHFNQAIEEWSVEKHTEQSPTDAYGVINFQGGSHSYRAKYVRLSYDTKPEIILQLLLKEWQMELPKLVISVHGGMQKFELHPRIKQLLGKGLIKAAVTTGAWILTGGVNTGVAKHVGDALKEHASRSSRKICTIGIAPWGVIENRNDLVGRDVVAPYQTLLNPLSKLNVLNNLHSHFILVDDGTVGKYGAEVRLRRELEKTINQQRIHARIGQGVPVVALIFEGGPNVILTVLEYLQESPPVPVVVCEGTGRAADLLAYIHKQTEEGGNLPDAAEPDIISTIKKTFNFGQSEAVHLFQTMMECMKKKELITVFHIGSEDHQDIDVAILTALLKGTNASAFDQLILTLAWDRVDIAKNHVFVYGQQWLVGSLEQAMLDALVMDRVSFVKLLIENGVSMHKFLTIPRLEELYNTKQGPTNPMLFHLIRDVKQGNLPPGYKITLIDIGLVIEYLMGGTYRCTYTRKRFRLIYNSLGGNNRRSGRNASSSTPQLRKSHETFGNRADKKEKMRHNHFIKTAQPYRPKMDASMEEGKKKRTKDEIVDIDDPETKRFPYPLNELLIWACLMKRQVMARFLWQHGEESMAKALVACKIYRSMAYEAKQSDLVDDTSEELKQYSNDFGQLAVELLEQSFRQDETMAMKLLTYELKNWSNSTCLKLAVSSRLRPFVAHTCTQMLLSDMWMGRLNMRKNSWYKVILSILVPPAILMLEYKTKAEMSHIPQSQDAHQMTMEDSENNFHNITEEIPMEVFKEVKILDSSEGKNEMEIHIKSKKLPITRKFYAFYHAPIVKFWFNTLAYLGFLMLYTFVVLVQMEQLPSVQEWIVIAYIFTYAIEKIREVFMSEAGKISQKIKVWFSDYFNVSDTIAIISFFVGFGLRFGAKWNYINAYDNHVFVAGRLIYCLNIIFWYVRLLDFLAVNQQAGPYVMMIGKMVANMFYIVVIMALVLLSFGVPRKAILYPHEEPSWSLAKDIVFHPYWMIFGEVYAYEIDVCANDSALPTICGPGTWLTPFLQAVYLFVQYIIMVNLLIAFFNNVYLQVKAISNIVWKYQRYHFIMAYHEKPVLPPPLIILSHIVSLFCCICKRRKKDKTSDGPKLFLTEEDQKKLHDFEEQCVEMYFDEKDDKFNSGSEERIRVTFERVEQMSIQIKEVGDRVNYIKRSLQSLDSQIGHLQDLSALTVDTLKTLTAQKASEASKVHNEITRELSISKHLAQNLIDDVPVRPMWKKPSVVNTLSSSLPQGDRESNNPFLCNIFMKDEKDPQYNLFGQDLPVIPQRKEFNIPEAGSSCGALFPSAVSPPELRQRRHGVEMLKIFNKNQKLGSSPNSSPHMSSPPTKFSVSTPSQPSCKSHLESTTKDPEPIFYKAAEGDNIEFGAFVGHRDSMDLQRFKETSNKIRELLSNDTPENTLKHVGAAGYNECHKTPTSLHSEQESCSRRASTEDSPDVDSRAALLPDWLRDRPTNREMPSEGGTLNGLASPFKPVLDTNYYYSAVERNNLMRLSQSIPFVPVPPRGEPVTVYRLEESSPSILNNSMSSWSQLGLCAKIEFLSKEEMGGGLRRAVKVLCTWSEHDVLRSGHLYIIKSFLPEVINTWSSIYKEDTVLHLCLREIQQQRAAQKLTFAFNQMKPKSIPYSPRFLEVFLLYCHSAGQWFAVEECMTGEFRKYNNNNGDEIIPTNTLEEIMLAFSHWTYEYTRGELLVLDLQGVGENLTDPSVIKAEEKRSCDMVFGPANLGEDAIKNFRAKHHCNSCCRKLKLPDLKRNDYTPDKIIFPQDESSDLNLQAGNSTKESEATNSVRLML

SMILES: c1ccc2c(c1)CCC[C@H]2Nc1nc2ccccc2[nH]1 [NS8593]
- IC50: 16 ± 3 µM

— PMC7012919, “TRPM7 contributes to progressive nephropathy” (Scientific Reports, 2020)
